Experimental findings from US8030043B2, “β-galactoside-α2,3-sialyltransferase, a gene encoding thereof, and a method for producing thereof” (Japan Tobacco Inc., priority 2005, dated 2011) are described below.

Experiment [1] has as its system α2,3-sialyltransferase derived from strain JT-ISH-467. Briefly: Sialic acid transfer to monosaccharides and disaccharides by partially purified α2,3-sialyltransferase (CMP-14C-NeuAc donor, radioactivity of column eluate). The note with it: 25° C., 4 hours, acceptor 10 μmol (200 mM), CMP-14C-NeuAc 400 nmol, sialyltransferase 0.13 mU, NaCl 500 mM. It counts as biochemical, Photobacterium phosphoreum. How it is done: A cell homogenate prepared from the strain JT-ISH-467 was partially purified by ion exchange chromatography, hydroxyapatite chromatography, and gel filtration chromatography. The thus partially purified α2,3-sialyltransferase was used in the following experiment in order to confirm the transfer of sialic acid to various monosaccharides and disaccharides.
The enzymatic reaction was carried out at 25° C. for 4 hours in a reaction solution (24 μl) prepared to contain CMP-^14C-NeuAc as a glycosyl donor substrate (400 nmol (15600 cpm), final concentration in the reaction solution: 16.6 mM), any of various glycosyl acceptor substrates (10 μmol, final concentration in the reaction solution: 200 mM), sialyltransferase (0.13 mU) and NaCl (final concentration in the reaction solution: 500 mM). The monosaccharides and disaccharides used as glycosyl acceptor substrates were the following 6 substances: methyl-α-D-galactopyranoside (Gal-α-OMe), methyl-β-D-galactopyranoside (Gal-β-OMe), N-acetylgalactosamine (GalNAc), lactose (Gal-β1,4-Glc), N-acetyllactosamine (Gal-β1,4-GlcNAc), and methyl-β-D-galactopyranosyl-β-1,3-N-acetylglucosaminide (Gal-β1,3-GlcNAc-β-OMe).
(§1) After completion of the enzymatic reaction, 1.98 ml of 5 mM phosphate buffer (pH 6.8) was added to the reaction solution to stop the enzymatic reaction. Then, the enzymatic reaction solution was diluted with 5 mM phosphate buffer (pH 6.8) and applied in a volume of 2 ml to a AG1-×2 Resin (PO4^3− form, 0.2×2 cm) column. This column was prepared as follows: AG1-×2 Resin (OH^− form, BIO-RAD) was suspended in 1 M phosphate buffer (pH 6.8), and after 30 minutes, the resin was washed with distilled water and then suspended in distilled water. The eluate (0 to 2 ml) from this column was measured for its radioactivity. The eluate from this column contains the unreacted glycosyl acceptor substrate and the ^14C-NeuAc (N-acetylneuraminic acid)-bound reaction product which was generated by the reaction, but unreacted CMP-^14C-NeuAc is still retained on the column. Thus, the radioactivity of ^14C from each sialic acid-containing sugar chain generated as a result of the enzymatic reaction arises exclusively from the reaction product, so that the radioactivity of this fraction can be used to calculate the enzyme activity.
(§2) In the manner described above, the radioactivity of NeuAc transferred to each glycosyl acceptor substrate was measured to calculate the amount of transferred sialic acid.

The subject of experiment [2] is ISH467-N2C0 recombinant β-galactoside-α2,3-sialyltransferase. Briefly: Acceptor substrate specificity of recombinant β-galactoside-α2,3-sialyltransferase (mono-, di-, trisaccharides). It counts as biochemical, Photobacterium phosphoreum.
From the text: (§3) Cell homogenates prepared from E. coli cells introduced with the third clone of ISH467-N2C0, the first clone of ISH224-N1C0 and the first clone of FAJ-N1C0 were each purified by ion exchange chromatography and hydroxyapatite chromatography to give an electrophoretically single band. The thus purified β-galactoside-α2,3-sialyltransferases were used in the following experiment in order to examine the presence or absence of sialyltransferase activity toward various monosaccharides, disaccharides and trisaccharides.
(§4) A reaction solution (24 μl) was prepared to contain CMP-^14C-NeuAc-containing CMP-NeuAc as a glycosyl donor substrate ([…], final concentration in the reaction solution: […]), any of various glycosyl acceptor substrates dissolved in 20 mM cacodylate buffer (pH 5.0) (1 μmol, final concentration in the reaction solution: 42 mM), sialyltransferase (in an amount as indicated in the footnotes of the tables below) and NaCl (final concentration in the reaction solution: 500 mM), and reacted under conditions as indicated in the footnotes of the tables below. The monosaccharides used as glycosyl acceptor substrates were the following 10 types: methyl-α-D-galactopyranoside (Gal-α-OMe), methyl-(β-D-galactopyranoside (Gal-β-OMe), methyl-α-D-glucopyranoside (Glc-α-OMe), methyl-β-D-glucopyranoside (Glc-β-OMe), methyl-α-D-mannopyranoside (Man-α-OMe), methyl-β-D-mannopyranoside (Man-β-OMe), methyl-α-D-fucopyranoside (Fuc-α-OMe), methyl-β-D-fucopyranoside (Fuc-β-OMe), N-acetylgalactosamine (GalNAc), and N-acetylglucosamine ([…]). The disaccharides used were the following 5 types: lactose (Gal-β1,4-Glc), N-acetyllactosamine (Gal-β1,4-GlcNAc), methyl-β-D-galactopyranosyl-β1,3-N-acetylglucosaminide (Gal-β1,3-GlcNAc-β-OMe), methyl-α-D-galactopyranosyl-α1,3-galactopyranoside (Gal-α-1,3-Gal-α-OMe), and methyl-β-D-galactopyranosyl-β1,3-galactopyranoside (Gal-β1,3-Gal-β-OMe). The trisaccharide used was 2′-fucosyllactose (Fuc-α1,2-Galβ1,4-Glc). It should be noted that the final concentration was set to 8.4 mM for the sugar chains shown in Table 18, i.e., methyl-α-D-galactopyranosyl-α1,3-galactopyranoside (Gal-α1,3-Gal-α-OMe), methyl-β-D-galactopyranosyl-β1,3-galactopyranoside (Gal-β1,3-Gal-β-OMe) and 2′-fucosyllactose (Fuc-α1,2-Gal-β1,4-Glc).
as §1, with “a AG1−×2” for “a AG1-×2”, “follows: AG1-x 2” for “follows: AG1-×2”, “unreacted CMP-14C-NeuAc” for “unreacted CMP-^14C-NeuAc”
as §2

For experiment [3], the system named is ISH224-N1C0 recombinant β-galactoside-α2,3-sialyltransferase. The experiment is described as above. It is filed as biochemical, Photobacterium sp.
From the text: as §3, §4
as §1, with “a AG1−×2” for “a AG1-×2”, “follows: AG1-x 2” for “follows: AG1-×2”, “unreacted CMP-14C-NeuAc” for “unreacted CMP-^14C-NeuAc”
as §2

Experiment [4] concerns FAJ-N1C0 recombinant β-galactoside-α2,3-sialyltransferase. Briefly: Acceptor substrate specificity of recombinant β-galactoside-α2,3-sialyltransferase (mono-, disaccharides). Details: FAJ-N1C0 Sialyltransferase activity Relative activity (%): tested at 42 mM. The note with it: 20° C., 14 hours; for FAJ-N1C0 Sialyltransferase activity: Table 16: 1 μmol acceptor, pH 5.0, about 2.5 mU enzyme; for FAJ-N1C0 Sialyltransferase activity Relative activity (%): Table 16: activity toward lactose set to 100. It counts as biochemical, Vibrio sp.
From the text: as §3, §4
as §1, with “a AG1−×2” for “a AG1-×2”, “follows: AG1-x 2” for “follows: AG1-×2”, “unreacted CMP-14C-NeuAc” for “unreacted CMP-^14C-NeuAc”
as §2

[5] abbreviates: Table 16: 1 μmol acceptor, pH 5.0, about 2.5 mU enzyme, 20° C., 14 hours.
Where [6] appears, read: Table 16: activity toward lactose set to 100, 20° C., 14 hours.
Where [7] appears, read: Table 17: 1 μmol acceptor, pH 5.0, 2.3 mU per reaction, 30° C., 0.5 minutes or 2 minutes.
[8] abbreviates: Table 17: activity toward lactose set to 100, 30° C., 0.5 minutes or 2 minutes.
Where [9] appears, read: Table 17: 1 μmol acceptor, pH 5.0, 1.0 mU per reaction, 30° C., 0.5 minutes or 2 minutes.
[10] abbreviates: Table 18: activity toward lactose set to 100, 0.2 μmol acceptor, 30° C., 2 minutes.

Turning to `CC(=O)N[C@H]1C(O)O[C@H](CO)[C@@H](O[C@@H]2O[C@H](CO)[C@H](O)[C@H](O)[C@H]2O)[C@@H]1O` (stereo partly drawn) [Lactosamine, N-acetyllactosamine], the “Amount of transferred sialic acid” value in experiment [1] is listed as “highest in amount of transferred sialic acid”; in experiment [1] (listed as Gal-β1,4-GlcNAc), 74.9 nmol. For the same molecule, the results for the “ISH467-N2C0 Sialyltransferase activity” value in experiment [2] (setting [5]) and in experiment [2] (setting [7]) were 9.2 nmol/min and 2.36 nmol/min, respectively. Moreover, the figures for the “ISH467-N2C0 Sialyltransferase activity Relative activity (%)” value in experiment [2] (setting [6]) and in experiment [2] (setting [8]) were 118% and 103%, respectively. Also, the “ISH224-N1C0 Sialyltransferase activity” value is listed as 9.7 nmol/min in experiment [3] (setting [5]) and 0.99 nmol/min in experiment [3] (setting [9]). Besides, the “ISH224-N1C0 Sialyltransferase activity Relative activity (%)” value is listed as 115% in experiment [3] (setting [6]) and 96% in experiment [3] (setting [8]). Further, the “FAJ-N1C0 Sialyltransferase activity” value in experiment [4] came out at 9.6 nmol/min. Also, the “FAJ-N1C0 Sialyltransferase activity Relative activity (%)” value in experiment [4] worked out at 127%.
For `OC[C@H]1O[C@@H](O[C@H]2[C@H](O)[C@@H](O)C(O)O[C@@H]2CO)[C@H](O)[C@@H](O)[C@H]1O` (stereo partly drawn) [Lactose, lactose], the “Amount of transferred sialic acid” value in experiment [1] came out at 57.9 nmol. Further, the “ISH467-N2C0 Sialyltransferase activity” value in experiment [2] (setting [5]) is 7.8 nmol/min; in experiment [2] (setting [7]), 2.29 nmol/min; in experiment [2] (Table 18: 0.2 μmol acceptor (8.4 mM), pH 5.0, 23 mU per reaction, 30° C., 2 minutes) it was 1.64 nmol/min. In addition, the “ISH467-N2C0 Sialyltransferase activity Relative activity (%)” value in experiment [2] (setting [6]), in experiment [2] (setting [8]) and in experiment [2] (setting [10]) was 100% in each case. Also, the “ISH224-N1C0 Sialyltransferase activity” value is listed as 8.4 nmol/min in experiment [3] (setting [5]); 1.03 nmol/min in experiment [3] (setting [9]); 1.51 nmol/min in experiment [3] (Table 18: 0.2 μmol acceptor (8.4 mM), pH 5.0, 1.0 mU per reaction, 30° C., 2 minutes). Further, the “ISH224-N1C0 Sialyltransferase activity Relative activity (%)” value in experiment [3] (setting [6]), in experiment [3] (setting [8]) and in experiment [3] (setting [10]) was 100% throughout. Moreover, the “FAJ-N1C0 Sialyltransferase activity” value in experiment [4] is given as 7.6 nmol/min. In experiment [4], the “FAJ-N1C0 Sialyltransferase activity Relative activity (%)” value is recorded as 100%.
As to `CO[C@H]1O[C@H](CO)[C@H](O)[C@H](O)[C@H]1O` [Methylαgalactopyranoside, methyl-α-D-galactopyranoside], the “Amount of transferred sialic acid” value in experiment [1] was determined as 60.0 nmol. Moreover, the “ISH467-N2C0 Sialyltransferase activity” value in experiment [2] (setting [5]) was determined as 10.5 nmol/min; in experiment [2] (setting [7]) it was 10.38 nmol/min. The entries for the “ISH467-N2C0 Sialyltransferase activity Relative activity (%)” value in experiment [2] (setting [6]) and in experiment [2] (setting [8]) were 134% and 452%, respectively. The “ISH224-N1C0 Sialyltransferase activity” value in experiment [3] (setting [5]) was 9.5 nmol/min; in experiment [3] (setting [9]) it was 8.49 nmol/min. The “ISH224-N1C0 Sialyltransferase activity Relative activity (%)” value came to 113% in experiment [3] (setting [6]) and 823% in experiment [3] (setting [8]). Moreover, in experiment [4], the “FAJ-N1C0 Sialyltransferase activity” value worked out at 10.3 nmol/min. Also, in experiment [4], the “FAJ-N1C0 Sialyltransferase activity Relative activity (%)” value is 135%.
For the molecule `CO[C@@H]1O[C@H](CO)[C@H](O)[C@H](O)[C@H]1O` [Methylβgalactopyranoside, methyl-β-D-galactopyranoside], the “Amount of transferred sialic acid” value in experiment [1] was 50.2 nmol. In addition, the “ISH467-N2C0 Sialyltransferase activity” value was found to be 9.1 nmol/min in experiment [2] (setting [5]) and 5.77 nmol/min in experiment [2] (setting [7]). In addition, the “ISH467-N2C0 Sialyltransferase activity Relative activity (%)” value is 116% in experiment [2] (setting [6]) and 251% in experiment [2] (setting [8]). Besides, the “ISH224-N1C0 Sialyltransferase activity” value stood at 8.9 nmol/min in experiment [3] (setting [5]) and 3.54 nmol/min in experiment [3] (setting [9]). Also, the “ISH224-N1C0 Sialyltransferase activity Relative activity (%)” value in experiment [3] (setting [6]) was determined as 105%; in experiment [3] (setting [8]), 343%. Also, in experiment [4], the “FAJ-N1C0 Sialyltransferase activity” value was 8.7 nmol/min. Moreover, the “FAJ-N1C0 Sialyltransferase activity Relative activity (%)” value in experiment [4] was 114%.
Consider `CC(=O)N[C@H]1C(O)O[C@H](CO)[C@H](O)[C@@H]1O` (stereo partly drawn) [N-Acetylgalactosamine, N-acetylgalactosamine], for which the “Amount of transferred sialic acid” value in experiment [1] is listed as 37.8 nmol. For the same molecule, the “ISH467-N2C0 Sialyltransferase activity” value is 5.4 nmol/min in experiment [2] (setting [5]) and 0.99 nmol/min in experiment [2] (setting [7]). Besides, the “ISH467-N2C0 Sialyltransferase activity Relative activity (%)” value in experiment [2] (setting [6]) stood at 69%; in experiment [2] (setting [8]) it was 43%. In addition, the figures for the “ISH224-N1C0 Sialyltransferase activity” value in experiment [3] (setting [5]) and in experiment [3] (setting [9]) were 5.8 nmol/min and 0.78 nmol/min, respectively. Besides, the “ISH224-N1C0 Sialyltransferase activity Relative activity (%)” value in experiment [3] (setting [6]) stood at 69%; in experiment [3] (setting [8]), 76%. In addition, the “FAJ-N1C0 Sialyltransferase activity” value in experiment [4] worked out at 4.4 nmol/min. In experiment [4], the “FAJ-N1C0 Sialyltransferase activity Relative activity (%)” value is 58%.
